The values that follow come from a melting point compilation (Tetko et al.; mined from patent text by program, amines drawn as free bases though some values may be those of a salt).

Structures are written as SMILES. Bounds are passed on as bounds.

Turning to `COC(=O)CC(=O)COc1cc(O)c2c(c1)OC(c1ccc(OC)c(O)c1)CC2=O` (stereo unspecified), the melting point (commonly the temperature, or range, at which the solid turns liquid) lay in the range of 114 to 118 °C.

`O=C(O)C(=O)c1ccc(OCCOc2cccc(F)c2)cc1` came in with a melting point of 108 to 109 °C.

`CNC(=S)NS(=O)(=O)c1cc(CCNC(=O)c2cc(Cl)ccc2OC)ccc1OCCOC` gave a melting point of 134 °C. For the compound `c1ccc(Cn2ccnc2-c2nnn[nH]2)cc1`, the melting point fell in the range of 274 to 275 °C. `Oc1ccc(Br)cc1-c1nc2ccccc2s1` had a melting point of 164 to 165 °C. `CS(=O)c1ccc(C2=C(c3ccccc3)C(=O)C(C)(C)O2)c(F)c1` (stereo unspecified): the melting point fell in the range of 149 to 150 °C.

In turn, `CCOC(=O)c1cccc2nc(C(C)C)n(Cc3ccc(-c4ccccc4-c4nnn[nH]4)cc3)c12` came in with a melting point of 144 to 146 °C. With `Cc1c(Cc2cccc(C(=O)O)c2)n(S(=O)(=O)c2cccc(C(C)(C)C)c2)c2ccc(C(F)(F)F)cc12` the figure was 194 °C; with `Cc1nc(N)sc1-c1ccnc(Nc2ccc3c(c2)OCO3)n1`, 211 to 213 °C. With `Cc1nnn(CC(C)n2nnc3cc4c(=O)n(C5CC5)nnc4cc3c2=O)n1` (stereo unspecified) the figure was 157 to 160 °C; with `N=C(N)c1cccc(S(=O)(=O)c2ccc(OC[C@@H]3C[C@@H](CC(=O)O)C(=O)N3CCCc3ccccc3)cc2)c1`, 205 to 207 °C. The compound `CC(=O)Nc1c(Cl)cc2c(=O)c(C(=O)O)cn3c2c1CCC3C` (stereo unspecified) showed a melting point of 234 to 236 °C. With `COC(=O)c1cccc2c1Nc1cc(I)ccc1C2` the figure was 108 to 110 °C; with `CC(C)(C)OC(=O)N1CCN(Cc2ccccc2)C(=S)C1`, 126 to 129 °C; with `C#CC(C)(O)c1ccc(Oc2ccc(Cl)cc2)cc1` (stereo unspecified), 55 to 57 °C.

Compound `COC[C@H]1CN(c2ccc3oc(-c4ccccc4)cc3c2)C(=O)O1` returned a melting point of 178 to 179 °C. In the case of `CC(C)Nc1nc(-n2cc(C(=O)O)c(=O)c3cc(F)c(F)c(Cl)c32)c(F)cc1F` it was 226 to 230 °C; in that of `Fc1ccc2occ(N3CCN(C4CCN(c5ccc(F)c6cccnc56)CC4)CC3)c2c1`, 187 to 189 °C; in that of `N#CSc1c(-c2ccccc2)[nH]c(Cl)c1C#N`, 159 °C. In the case of `CCN(CC1CCN(C(=O)NC)CC1)C(C)Cc1ccc(OC)cc1` (stereo unspecified) it was 97 to 98 °C; in that of `Cc1cc2c(cc1C)-n1c(n[nH]c1=O)C=C(c1ccc(-n3c(C)nc4cnccc43)cc1)N2`, > 325 °C.

For `Nc1nnc(-c2ccc(F)c(F)c2Nc2ccc(Br)cc2F)o1`, the melting point was 245 °C.

Turning to `Cc1ccc(C2SC(=S)N(C(=O)NN3CCOCC3)C2C)cc1` (stereo unspecified), the melting point was in the range of 101 to 103 °C.

`CCC(=O)N1CCNC1=Nc1ccc(Cl)cc1Cl` showed a melting point of 126 to 128 °C. With `Cc1cc(OC(C)(C)C(=O)O)c(C)c(Br)c1C` the figure was 151 to 153 °C.

The compound `O=C1Nc2c(C(F)(F)F)cccc2C12COc1cc3c(cc12)OCO3` (stereo unspecified) registered a melting point of 245 to 248 °C.

The compound `CC(c1cccc(C#N)n1)C(O)(Cn1cncn1)c1ccc(F)cc1F` (stereo unspecified) gave a melting point of 144 to 146 °C. With `OCc1cn(C(c2ccccc2)(c2ccccc2)c2ccccc2)cn1` the figure was 224 to 227 °C; with `CCOC(=O)CC(C)(C)CC(=O)C1CC2=C(CC(C)(C)CC2)N(C2CCCCC2)C1` (stereo unspecified), 44 to 46 °C; with `Cc1nn(C2CCCC2C)c(N)c1C#N` (stereo unspecified), 158 to 159 °C. `CC(C)Oc1ccc(CCCOc2nn(Cc3ccccc3)cc2CC(=O)O)c(Oc2ncc(Cl)cc2Cl)c1`: the melting point is 111 to 113 °C. With `C=CCc1cc2c(cc1O)CCC(=O)N2CC=C(C)C` the figure was 148 to 150 °C; with `COc1ccc(-c2nc(C)ccc2OC2SCC(O)C(O)C2O)cc1` (stereo unspecified), 86 to 90 °C. In the case of `CN1CC(C(=O)c2coc(Cc3ccc(F)cc3)c2)=C(O)C1=O` it was 158 to 160 °C.

In turn, `CC(C)Nc1nc(N)nc2c1ncn2C1C=CC(CO)C1` (stereo unspecified) yielded a melting point of 87 to 90 °C.

Regarding `CN(C)C(=O)Nc1ccc(Oc2ccc3c(c2)OC(C)(C)CC3)cc1`, the melting point lay within 137 to 138 °C. `Cn1c(C(F)(F)F)nn(-c2ccc(Cl)c(C(=O)O)c2)c1=O` displayed a melting point of 223 °C.

Compound `NC(=O)Nc1ccccc1S` returned a melting point of 151 to 153 °C. In the case of `CC1(C(=O)NNc2c(Cl)cc(C(F)(F)F)cc2Cl)CC1(Cl)Cl` (stereo unspecified) it was 174 to 175 °C; in that of `CC(C)(C)OC(=O)c1ccc(NC2CCc3cc(NC(=O)COCc4ccccc4)c(C#N)cc32)cc1` (stereo unspecified), 194 to 195 °C; in that of `C#CCNC(=O)C(C#N)=C1CC(C)(C)c2cc(OC)c(OC)cc21`, 202 to 205 °C. The compound `O=C(CS(=O)(=O)c1ccccc1)c1ccnc(Cl)c1` registered a melting point of 124 to 126 °C.

`O=C(O)CCCC=Cc1nn(-c2ccc(Cl)cc2)c2c1CCC2` registered a melting point of 132 to 134 °C. With `CC1(C)C(=O)Oc2ccc3cc([N+](=O)[O-])c(Cn4cncn4)cc3c21` the figure was 183 to 185 °C; with `CCOC(=O)c1c(C)nn(C)c1S(=O)(=O)N=c1nc2nc(C)cc(C)n2s1`, 167 to 168 °C; with `O=C1NC(=O)C(c2ccc(NCc3ccc(Cl)c(Cl)c3)cc2)S1` (stereo unspecified), 132 to 133 °C. For `Cc1ccc(N2CCN(c3ccc4c(ncc5c4c(=O)c(C(=O)O)cn5C)c3F)CC2)cc1F`, the melting point is > 300 °C. In the case of `C#CC1N(C(=O)Oc2ccccc2)c2cc(OC(=O)C(C)(C)C)ccc2C23OC12CCCC3=O` (stereo unspecified) it was 164 to 166 °C. In the case of `O=S1c2ccccc2Sc2ccc(-c3nnn[nH]3)cc21` (stereo unspecified) it was 200 to 204 °C. In the case of `COc1ccc(N2C(=O)[C@H](O)[C@@H]2CC2CCCCC2)cc1` it was 152 to 155 °C; in that of `CC(C)(CSc1ccc(Cl)cc1)C(O)C(Oc1ccc(Cl)cc1)n1cncn1` (stereo unspecified), 132 °C. The compound `O=C(O)Cc1ccc(-c2ccc(F)cc2F)cc1` gave a melting point of 143 to 145 °C. With `Cc1ccc(C2COc3cc(O)ccc3C2c2ccc(OCCN3CCCC3)cc2)cc1` (stereo unspecified) the figure was 161 to 165 °C; with `FCc1ccc(-c2cn([C@H]3CN4CCC3CC4)nn2)cc1`, 138 °C; with `CCCCC(CC)C(=O)Nc1ccc2ccn(Cc3ccc(C(=O)CS(=O)(=O)c4ccccc4)cc3OC)c2c1` (stereo unspecified), 131 to 133 °C.

`CCC=CCn1c(C)c(C)c2cnnc(OCc3ccccc3)c21` gave a melting point of 92 to 93 °C. In the case of `CCN(CC)c1ccc2c(c1)C[C@@H]1c3ccccc3N[C@H]21` (relative stereo) it was 116 to 118 °C. With `COc1cc(C(=O)[C@H](C)NC(=O)C(F)(F)F)c(OC)cc1Br` the figure was 144 to 145 °C; with `COc1ccc(CCOc2cccc(-c3cccc(C(N)=O)c3)n2)cc1OC`, 141 to 142 °C.

The compound `Cc1ccc(S(=O)(=O)OC[C@@H]2NC(=O)[C@@H]2N=[N+]=[N-])cc1` (relative stereo) showed a melting point of 77 to 78 °C. The compound `Cn1cc(S(C)=O)c(=O)c2sc(-c3cccc(Cl)c3)cc21` (stereo unspecified) registered a melting point of 249 to 251 °C. In the case of `Cc1c(SCCN2CCOCC2)ccnc1CSc1nc2ccccc2n1CC(=O)O` it was 223 to 225 °C; in that of `O=C1CCC(O)=C1Cc1cccc(CCNS(=O)(=O)c2ccc(Cl)cc2)c1`, 176 to 178 °C.

Regarding `CCOC1(CCC(=O)O)c2cc(C)c(OC(C)=O)cc2Oc2cc(OC(C)=O)c(C)cc21`, the melting point was determined as 143 °C. In turn, `CC(=S)c1ccc(Cc2ccc(C(C)=S)cc2)cc1` showed a melting point of 54 to 55 °C.

`CC(=O)c1cc(C(F)(F)F)nn1-c1ccc(NC(=O)c2ccccc2F)cc1` returned a melting point of 188 to 189 °C. With `CC(C)C(=O)NCCCCn1c(CO)nc2c(N)nc3ccccc3c21` the figure was 222 to 224 °C; with `CCC(=CC(CNC(=O)c1cnc2ccccc2c1)=NO)C(C)[N+](=O)[O-]` (stereo unspecified), 168 to 170 °C; with `CCOC(=O)c1cc(C)nc(NN=C(C)C)c1`, 79 to 82 °C. `N#Cc1c(Cl)c(Cl)n(CC#CI)c1-c1ccc(Cl)c(Cl)c1` yielded a melting point of 115 to 116 °C. `COC1=C(OC)C(=O)C2=C(CCC(CCn3c(=O)ccc4ccccc43)CC2)C1=O` showed a melting point of 88 to 90 °C. With `O=C(O)COc1ccc(C(=CC(=O)NCc2cccnc2)c2ccccc2)cc1` the figure was 187 to 189 °C; with `CCCCCCCCCCCCCCCCOc1ccc(OCC(=O)Nc2ccccc2CO)cc1`, 128 to 131 °C; with `CCC1(CC)CC(O)CC(C)(C)N1OC(C)c1ccccc1` (stereo unspecified), 84 to 86 °C. With `Cc1ccc(-n2c(-c3sc(Nc4ccc(Cl)cc4)nc3C)nc3ccccc3c2=O)cc1` the figure was > 275 °C; with `CC=C1CCC2C3CCC4CC(O)CCC4(C)C3C(N)CC12C` (stereo unspecified), 118 to 125 °C.

With `COc1ccc(OC)c([Si](C)(C)COc2cc(C(C)(C)C)c(O)c(C(C)(C)C)c2)c1`, the melting point came to 103 °C. With `Cn1cc(C(=O)O)c(=O)c2c3cc(N4CCC[C@H]4CNc4ccccc4)c(F)cc3ncc21` the figure was 250 °C; with `O=C(N[C@@H](Cc1ccccc1)C(=O)CSCc1ccco1)OCc1ccccc1`, 64 °C; with `CC(C)=C1Cc2ccc3nc(C)oc3c2C1=O`, 156 to 159 °C.

Compound `CCc1nc2c(C)cc(C)nc2n1Cc1ccc(C(=C(c2nnn[nH]2)S(C)=O)c2ccccc2)cc1` (stereo unspecified) displayed a melting point of 141 to 144 °C. In the case of `CN1CCCC1CCNC(=O)Cn1c(-c2ccc(Cl)cc2)nc2cccnc21` (stereo unspecified) it was 170 to 172 °C. In the case of `N#Cc1cccc2c1COc1ccc(OCc3ccc4ccc(Cl)cc4n3)cc1C2SCCC(=O)O` (stereo unspecified) it was 193 to 195 °C; in that of `CCCCc1nn(-c2ccccc2Cl)c(=O)n1Cc1ccc(-c2ccccc2S(=O)(=O)NC(=O)C(F)(F)F)cc1`, 163 to 166 °C. In the case of `CCn1cc(C(=O)O)c(=O)cc1Cl` it was 155 to 157 °C; in that of `CC(C)(C)c1cc(CC#Cc2ccc(C(=O)O)cc2)cc(C(C)(C)C)c1O`, 198 to 199 °C.
